Reference: the NIST ThermoML archive (doi:10.1016/j.fluid.2010.05.001)

Tests used:
[1] = xn = mol fraction of the nth substance listed; settings: 101 kPa, Liquid, Vibrating tube method
[2] = 101.33 kPa, Liquid, Vibrating tube method

CN1CCCCC1 [N-methylpiperidine] + O
[1]
Settings | mass density [kg/m3]
288.15 K, x1 = 0.0101 | 994.829
288.15 K, x1 = 0.0728 | 966.82
288.15 K, x1 = 0.0971 | 957.332
288.15 K, x1 = 0.1499 | 939.294
288.15 K, x1 = 0.2452 | 913.306
288.15 K, x1 = 0.3359 | 895.82
288.15 K, x1 = 0.3895 | 886.349
288.15 K, x1 = 0.55 | 863.074
288.15 K, x1 = 0.66 | 850.384
288.15 K, x1 = 0.7 | 846.317
288.15 K, x1 = 0.8 | 836.071
288.15 K, x1 = 0.9 | 828.075
298.15 K, x1 = 0.0133 | 990.926
298.15 K, x1 = 0.0248 | 985.215
298.15 K, x1 = 0.0299 | 982.27
298.15 K, x1 = 0.0728 | 960.309
298.15 K, x1 = 0.0971 | 949.172
298.15 K, x1 = 0.19 | 917.46
298.15 K, x1 = 0.2452 | 903.811
298.15 K, x1 = 0.3359 | 884.947
298.15 K, x1 = 0.4036 | 873.347
298.15 K, x1 = 0.453 | 865.779
298.15 K, x1 = 0.4767 | 862.238
298.15 K, x1 = 0.505 | 858.158
298.15 K, x1 = 0.595 | 846.184
298.15 K, x1 = 0.6987 | 835.141
298.15 K, x1 = 0.7907 | 826.047
298.15 K, x1 = 0.8822 | 819.375
308.15 K, x1 = 0.0133 | 987.229
308.15 K, x1 = 0.0153 | 986.286
308.15 K, x1 = 0.0248 | 980.469
308.15 K, x1 = 0.0299 | 976.97
308.15 K, x1 = 0.0728 | 952.068
308.15 K, x1 = 0.0971 | 941.377
308.15 K, x1 = 0.1972 | 908.857
308.15 K, x1 = 0.391 | 866.58
308.15 K, x1 = 0.4972 | 849.931
308.15 K, x1 = 0.57 | 840.165
308.15 K, x1 = 0.6987 | 825.724
308.15 K, x1 = 0.78 | 818.342
318.15 K, x1 = 0.00418 | 987.683
318.15 K, x1 = 0.00896 | 985.125
318.15 K, x1 = 0.0153 | 981.488
318.15 K, x1 = 0.018 | 979.939
318.15 K, x1 = 0.02 | 978.288
318.15 K, x1 = 0.15 | 912.237
318.15 K, x1 = 0.1972 | 896.689
318.15 K, x1 = 0.3 | 874.067
318.15 K, x1 = 0.4972 | 840.492
318.15 K, x1 = 0.66 | 821.213
318.15 K, x1 = 0.85 | 804
328.15 K, x1 = 0.00418 | 983.308
328.15 K, x1 = 0.00896 | 980.507
328.15 K, x1 = 0.01 | 979.617
328.15 K, x1 = 0.0133 | 977.934
328.15 K, x1 = 0.3823 | 848.444
328.15 K, x1 = 0.545 | 824.697
328.15 K, x1 = 0.7049 | 807.305
328.15 K, x1 = 0.795 | 800.206
328.15 K, x1 = 0.945 | 790.511

CN1CCCCC1 [N-methylpiperidine]
[2]
Settings | mass density [kg/m3] | molar volume [m3/mol]
288.15 K | 822.237 | 0.0001206
298.15 K | 810.887 | 0.0001223
308.15 K | 803.846 | 0.0001234
318.15 K | 796.931 | 0.0001244
328.15 K | 785.64 | 0.0001262
338.15 K | 781.618 | 0.0001269

CC1CCCCN1 (stereo unspecified) [2-methylpiperidine]
[2]
Settings | mass density [kg/m3] | molar volume [m3/mol]
288.15 K | 846.703 | 0.0001171
298.15 K | 835.787 | 0.0001187
308.15 K | 826.08 | 0.0001201
318.15 K | 817.349 | 0.0001213
328.15 K | 809.08 | 0.0001226
338.15 K | 801.96 | 0.0001237

CC1CCCCN1 (stereo unspecified) [2-methylpiperidine] + O
[1]
Settings | mass density [kg/m3]
288.15 K, x1 = 0.022 | 992.158
288.15 K, x1 = 0.0488 | 982.491
288.15 K, x1 = 0.0966 | 965.22
288.15 K, x1 = 0.1901 | 940.03
288.15 K, x1 = 0.3019 | 918.147
288.15 K, x1 = 0.4006 | 904.274
288.15 K, x1 = 0.47 | 896.239
288.15 K, x1 = 0.59 | 883.489
288.15 K, x1 = 0.685 | 874.59
288.15 K, x1 = 0.775 | 866.186
288.15 K, x1 = 0.813 | 863.581
298.15 K, x1 = 0.0506 | 976.147
298.15 K, x1 = 0.0951 | 957.78
298.15 K, x1 = 0.1955 | 930.75
298.15 K, x1 = 0.288 | 911.236
298.15 K, x1 = 0.3958 | 894.275
298.15 K, x1 = 0.45 | 886.977
298.15 K, x1 = 0.4708 | 884.952
298.15 K, x1 = 0.5925 | 871.352
298.15 K, x1 = 0.7 | 860.793
298.15 K, x1 = 0.8043 | 851.545
308.15 K, x1 = 0.0506 | 969.86
308.15 K, x1 = 0.0951 | 951.024
308.15 K, x1 = 0.1955 | 921.38
308.15 K, x1 = 0.288 | 902.606
308.15 K, x1 = 0.388 | 886.089
308.15 K, x1 = 0.463 | 875.982
308.15 K, x1 = 0.585 | 861.756
308.15 K, x1 = 0.6501 | 855.347
318.15 K, x1 = 0.0506 | 963.421
318.15 K, x1 = 0.0951 | 943.575
318.15 K, x1 = 0.1955 | 912.95
318.15 K, x1 = 0.288 | 893.567
318.15 K, x1 = 0.388 | 876.681
318.15 K, x1 = 0.463 | 866.663
318.15 K, x1 = 0.585 | 852.312
318.15 K, x1 = 0.6501 | 846.574
328.15 K, x1 = 0.05 | 957.601
328.15 K, x1 = 0.0982 | 935.269
328.15 K, x1 = 0.3019 | 883.044
328.15 K, x1 = 0.4006 | 867.078
328.15 K, x1 = 0.4585 | 859.202
328.15 K, x1 = 0.5699 | 846.009
328.15 K, x1 = 0.6591 | 836.942
328.15 K, x1 = 0.775 | 826.192
338.15 K, x1 = 0.0951 | 926.141
338.15 K, x1 = 0.1901 | 897.2
338.15 K, x1 = 0.3019 | 873.469
338.15 K, x1 = 0.365 | 863.604
338.15 K, x1 = 0.4585 | 850.39
338.15 K, x1 = 0.5925 | 834.463
338.15 K, x1 = 0.8043 | 816.519
